Tests used:
platelets = test: Example 4: light transmission aggregometry (LTA) induced by 5 and 20 μM ADP; assay type: in vivo, human
Method: The study involved 12 patients who met the criteria of being 18-75 years of age, having coronary artery disease (CAD) documented by a previous MI or coronary revascularization, and taking 81 mg of aspirin daily. […] Prohibited concomitant medications included strong and potent CYP3A inhibitors, simvastatin and lovastatin at doses more than 40 mg/day, omeprazole or esomeprazole, and digoxin. Use of non-steroidal anti-inflammatory agents was discouraged during study participation but not prohibited.
Each patient was administered a 30 μg/kg bolus of cangrelor followed immediately by a 2 hr infusion at a rate of 4.0 μg/kg/min. A loading dose of ticagrelor (180 mg) was given after 0.5 hr or 1.25 hr (n=6 for each). Blood for pharmacodynamic platelet function studies was taken after 0.5 or 1.25 hr (corresponding to the time of ticagrelor load, n=6 for each), and then at 1.75, 2, 2.25, 2.5, 2.75, 3, 4, and 5.25 hr. Patients were assigned randomly to receive either 6 (n=6) or 7 (n=6) doses of ticagrelor to be taken every 12 hours following the discontinuation of the infusion of cangrelor. On study day 5, each patient was administered a 30 μg/kg bolus of cangrelor followed immediately by a 2 hr infusion at a rate of 4.0 μg/kg/min. Blood for pharmacodynamic assessment was taken after 1 and 2 hr. Adverse events were queried throughout study participation that ended with a telephone interview performed on study day 10-12.
Pharmacodynamic assessment included light transmission aggregometry (LTA), VerifyNow® P2Y12 assay, vasodilator-stimulated phosphoprotein (VASP) index, and platelet activation measured with the use of flow cytometry. Assessment of LTA, VerifyNow®, and platelet activation with the use of flow cytometry was performed within 30 min of blood being taken. In the case of flow cytometry, samples were processed to fixation and then batched for analysis. For VASP, index samples were batched and processed as recommended by the vendor within 2 h of blood being taken. This approach limited the time from fixation of VASP index to flow analysis to less than 1 h.
LTA induced by 5 μM and 20 μM adenosine diphosphate (ADP) was quantified ex vivo (i.e. in non-adjusted platelet rich plasma). Platelet-poor plasma was set as 100% aggregation, and both maximal (peak) and terminal (at 300 s) aggregation were measured with a PAP4 aggregometer (BioData, Horsham, Pa.). VerifyNow® P2Y12 assay (Accumetrics Inc, San Diego, Calif.) that measures the effects of drugs on the P2Y12 receptor by activating platelets with prostaglandin El in addition to ADP was used in accordance with the instructions provided by the manufacturer. Platelet reactivity was expressed in P2Y12 reaction units (PRU). Activation of platelets was identified with the use of flow cytometry as previously described.^17. And to determine the VASP index, a commercially available kit (Diagnostica Stago, Inc, Parsippany NJ) was used. ^17 Schneider D J, Sobel B E. Streamlining the design of promising clinical trials: in-vitro testing of antithrombotic regimens and multiple agonists of platelet activation. Coron Artery Dis. 2009; 20:175-8.

P2Y12 receptor = target: T1, P2Y12 receptor (Homo sapiens, UniProt Q9H244); test: Example 2 substudy: platelet function by VerifyNow P2Y12 Assay; assay type: in vivo
T1 construct: from tissue; host or cells: platelets in whole blood of patients
T1 sequence (Q9H244 whole entry): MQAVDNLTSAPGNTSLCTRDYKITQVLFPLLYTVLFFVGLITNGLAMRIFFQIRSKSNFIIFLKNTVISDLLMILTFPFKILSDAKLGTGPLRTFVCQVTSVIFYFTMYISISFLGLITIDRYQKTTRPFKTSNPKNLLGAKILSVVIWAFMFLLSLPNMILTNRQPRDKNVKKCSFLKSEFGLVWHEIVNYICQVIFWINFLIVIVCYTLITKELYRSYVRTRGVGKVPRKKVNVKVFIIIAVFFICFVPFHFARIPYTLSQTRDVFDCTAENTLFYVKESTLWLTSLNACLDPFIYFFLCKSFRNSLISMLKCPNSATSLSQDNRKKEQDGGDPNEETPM
Method: Platelet function parameters were measured using the VerifyNow® P2Y12 Assay (Accumetrics, San Diego, Calif.). Samples were taken before study drug administration, at approximately 2 hours (during cangrelor/placebo infusion), and 10 hours or next day following randomization.

[1] = Study Day 1, 1.75 h, Ticagrelor at 0.5 hr
[2] = Study Day 1, 1.75 h, Ticagrelor at 1.25 hr
[3] = Study Day 1, 2.0 h, Ticagrelor at 0.5 hr
[4] = Study Day 1, 2.0 h, Ticagrelor at 1.25 hr
[5] = Study Day 1, reference 0.5/1.25 h, All
[6] = Study Day 1, reference 0.5/1.25 h, Ticagrelor at 0.5 hr
[7] = Study Day 1, reference 0.5/1.25 h, Ticagrelor at 1.25 hr
[8] = Study Day 5, 1.0 h, Ticagrelor 6 doses
[9] = Study Day 5, 1.0 h, Ticagrelor 7 doses
[10] = Study Day 5, 2.0 h, Ticagrelor 6 doses
[11] = Study Day 5, 2.0 h, Ticagrelor 7 doses

## CSCCNc1nc(SCCC(F)(F)F)nc2c1ncn2[C@@H]1O[C@H](COP(=O)(O)OP(=O)(O)C(Cl)(Cl)P(=O)(O)O)[C@@H](O)[C@H]1O [Cangrelor, cangrelor]
platelets; Study Day 1, 1.75 h, All
  IPA, 5 μM ADP, LTA: 92 ± 5%
  IPA, 20 μM ADP, LTA: 97 ± 2%
  PR, 5 μM ADP, LTA: 3.4 ± 2.2%
  PR, 20 μM ADP, LTA: 2.2 ± 1.4%
platelets; [1]
  IPA, 5 μM ADP, LTA: 92 ± 5%
  IPA, 20 μM ADP, LTA: 97 ± 2%
  PR, 5 μM ADP, LTA: 4.2 ± 2.4%
  PR, 20 μM ADP, LTA: 2.3 ± 1.0%
platelets; [2]
  IPA, 5 μM ADP, LTA: 93 ± 6%
  IPA, 20 μM ADP, LTA: 97 ± 3%
  PR, 5 μM ADP, LTA: 2.7 ± 1.8%
  PR, 20 μM ADP, LTA: 2 ± 1.8%
platelets; Study Day 1, 2.0 h, All
  IPA, 5 μM ADP, LTA: 92 ± 3%
  IPA, 20 μM ADP, LTA: 97 ± 3%
  PR, 5 μM ADP, LTA: 4.1 ± 2%
  PR, 20 μM ADP, LTA: 2.3 ± 2.2%
platelets; [3]
  IPA, 5 μM ADP, LTA: 91 ± 3%
  IPA, 20 μM ADP, LTA: 95 ± 2%
  PR, 5 μM ADP, LTA: 4.8 ± 1.9%
  PR, 20 μM ADP, LTA: 3.5 ± 1.9%
platelets; [4]
  IPA, 5 μM ADP, LTA: 93 ± 3%
  IPA, 20 μM ADP, LTA: 98 ± 3%
  PR, 5 μM ADP, LTA: 3.3 ± 2%
  PR, 20 μM ADP, LTA: 1.2 ± 1.9%
platelets; [5]
  IPA, 5 μM ADP, LTA: 93 ± 3%
  IPA, 20 μM ADP, LTA: 98 ± 2%
  PR, 5 μM ADP, LTA: 3.6 ± 1.8%
  PR, 20 μM ADP, LTA: 1.7 ± 1.7%
platelets; [6]
  IPA, 5 μM ADP, LTA: 92 ± 4%
  IPA, 20 μM ADP, LTA: 97 ± 2%
  PR, 5 μM ADP, LTA: 4.2 ± 2.1%
  PR, 20 μM ADP, LTA: 2 ± 1.5%
platelets; [7]
  IPA, 5 μM ADP, LTA: 93 ± 2%
  IPA, 20 μM ADP, LTA: 98 ± 3%
  PR, 5 μM ADP, LTA: 3 ± 1.4%
  PR, 20 μM ADP, LTA: 1.3 ± 2.0%
platelets; Study Day 5, 1.0 h, All
  IPA, 5 μM ADP, LTA: 96 ± 3%
  IPA, 20 μM ADP, LTA: 98 ± 2%
  PR, 5 μM ADP, LTA: 2.1 ± 1.7%
  PR, 20 μM ADP, LTA: 1.5 ± 1.5%
platelets; [8]
  IPA, 5 μM ADP, LTA: 96 ± 4%
  IPA, 20 μM ADP, LTA: 98 ± 2%
  PR, 5 μM ADP, LTA: 1.5 ± 1.6%
  PR, 20 μM ADP, LTA: 1.5 ± 1.6%
platelets; [9]
  IPA, 5 μM ADP, LTA: 96 ± 3%
  IPA, 20 μM ADP, LTA: 98 ± 2%
  PR, 5 μM ADP, LTA: 2.7 ± 1.6%
  PR, 20 μM ADP, LTA: 1.5 ± 1.5%
platelets; Study Day 5, 2.0 h, All
  IPA, 5 μM ADP, LTA: 96 ± 4%
  IPA, 20 μM ADP, LTA: 98 ± 2%
  PR, 5 μM ADP, LTA: 2.2 ± 2.2%
  PR, 20 μM ADP, LTA: 1.3 ± 1.6%
platelets; [10]
  IPA, 5 μM ADP, LTA: 97 ± 3%
  IPA, 20 μM ADP, LTA: 98 ± 1%
  PR, 5 μM ADP, LTA: 1.5 ± 1.5%
  PR, 20 μM ADP, LTA: 1.2 ± 1.5%
platelets; [11]
  IPA, 5 μM ADP, LTA: 95 ± 5%
  IPA, 20 μM ADP, LTA: 98 ± 3%
  PR, 5 μM ADP, LTA: 2.8 ± 2.7%
  PR, 20 μM ADP, LTA: 1.5 ± 1.9%
platelets; combined overall population, 0.5 h after cangrelor was stopped, ticagrelor loaded during infusion
  residual reactivity, maximal: 19%
platelets; combined overall population, end of observation period (5.25 h)
  residual reactivity: < 5%
P2Y12 receptor; 12-24 hours after discontinuation of the cangrelor infusion
  median PRU (VerifyNow P2Y12 assay): 228 PRU
P2Y12 receptor; during the study drug infusion (approx. 2 hours)
  median PRU (VerifyNow P2Y12 assay): 93.5 PRU
